According to patent publication US5686441A, “Penam sulfones as β-lactamase inhibitors” (Syphar Laboratories, Inc., priority 1995, dated 1997):
In brackets after ≈: the same amount, converted by molar mass. Counter-ions that a name gives are not always drawn. Like-named read-outs stand apart in the source and are kept apart here.

How the values were obtained:
TEM-1 = target: T1, TEM-1 (Escherichia coli, UniProt P62593); assay: β-lactamase inhibitory activity, spectrophotometric rate assay with nitrocefin; format: biochemical; details: TEM-1 isolated from E. coli; nitrocefin substrate; read-out: 50% Inhibitory conc. TEM-1
T1 construct: TEM-1 (isolated from E. coli); endogenous in cells; host or cells: E. coli (enzyme isolated from the bacterium)
T1 sequence (P62593 24-286 limits assumed): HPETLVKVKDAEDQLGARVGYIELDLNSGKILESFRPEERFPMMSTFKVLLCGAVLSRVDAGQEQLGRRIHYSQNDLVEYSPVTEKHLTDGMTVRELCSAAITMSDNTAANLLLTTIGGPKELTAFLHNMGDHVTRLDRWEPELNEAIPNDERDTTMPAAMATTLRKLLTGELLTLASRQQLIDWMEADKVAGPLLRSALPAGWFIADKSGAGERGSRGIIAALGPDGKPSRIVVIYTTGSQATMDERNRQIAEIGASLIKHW
Procedure: (§1) The inhibitory activities of present compounds against TEM-1 (isolated from E. coli), CTX-1 (isolated from K. pneumoniae), cephalosporinase (isolated from P. aeruginoase 46012) was measured by spectrophotometric rate assay using […] and using nitrocefin as a substrate [J. Antimicrob. Chemother., 28, pp. 775-776 (1991)].

cephalosporinase = target: T2, cephalosporinase (Pseudomonas aeruginosa, UniProt P24735); assay: as above; format: biochemical; details: cephalosporinase isolated from P. aeruginoase 46012; nitrocefin substrate; read-out: 50% Inhibitory conc. Cephalosporinase
T2 construct: nitrocefin spectrophotometric assay
T2 sequence (P24735 27-397): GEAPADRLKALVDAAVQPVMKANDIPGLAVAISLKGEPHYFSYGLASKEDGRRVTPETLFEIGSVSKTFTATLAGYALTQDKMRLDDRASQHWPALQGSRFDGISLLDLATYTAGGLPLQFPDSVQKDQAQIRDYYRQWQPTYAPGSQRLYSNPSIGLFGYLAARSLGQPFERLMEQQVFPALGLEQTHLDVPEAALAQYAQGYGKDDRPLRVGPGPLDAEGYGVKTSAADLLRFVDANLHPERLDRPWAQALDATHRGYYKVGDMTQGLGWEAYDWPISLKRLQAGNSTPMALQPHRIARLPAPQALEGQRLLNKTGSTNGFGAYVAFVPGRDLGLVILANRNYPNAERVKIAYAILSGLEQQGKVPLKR
Procedure: as §1

E. coli TEM 3 = assay: MIC, agar dilution method; details: Escherichia coli, TEM3, 18 h
E. coli TEM 7 = assay: MIC, agar dilution method; details: Escherichia coli, TEM7, 18 h
K. pneumoniae CTX1 = assay: MIC, agar dilution method; details: Klebsiella pneumoniae, CTX1, 18 h
E. cloacae P99 = assay: MIC, agar dilution method; details: Enterobacter cloacae, P99, 18 h
E. cloacae 40011 = assay: MIC, agar dilution method; details: Enterobacter cloacae, 40011, 18 h
E. aerogenes 41004 = assay: MIC, agar dilution method; details: Klebsiella aerogenes, 41004, 18 h
M. morganii 36010 = assay: MIC, agar dilution method; details: Morganella morganii, 36010, 18 h
M. morganii 36014 = assay: MIC, agar dilution method; details: Morganella morganii, 36014, 18 h
P. aeruginosa 46220 DR-2 = assay: MIC, agar dilution method; details: Pseudomonas aeruginosa, 46220DR2, 18 h, read-out: MIC Ceftazidime (Alone)
E. aerogenes 41003 = assay: MIC, agar dilution method; details: Klebsiella aerogenes, 41003, 18 h, read-out: MIC Ceftazidime (Alone)
P. aeruginosa L 46003 = assay: MIC, agar dilution method; details: Pseudomonas aeruginosa, L46003, 18 h, read-out: MIC Ceftazidime (Alone)
E. cloacae E. 40009 = assay: MIC, agar dilution method; details: Enterobacter cloacae, E.40009, 18 h, read-out: MIC Ceftazidime (Alone)
E. aerogenes 41006 = assay: MIC, agar dilution method; details: Klebsiella aerogenes, 41006, 18 h, read-out: MIC Ceftazidime (Alone)
S. aureus 1628 = assay: MIC, agar dilution method; details: Staphylococcus aureus, 1628, 18 h, read-out: MIC Piperacillin Alone
S. aureus 54K = assay: MIC, agar dilution method; details: Staphylococcus aureus, 18 h, read-out: MIC Piperacillin Alone
S. aureus 80K = assay: MIC, agar dilution method; details: Staphylococcus aureus, 18 h, read-out: MIC Piperacillin Alone
E. coli TEM 1 = assay: MIC, agar dilution method; details: Escherichia coli, TEM1, 18 h, read-out: MIC Piperacillin Alone
E. coli OXA 1 = assay: MIC, agar dilution method; details: Escherichia coli, OXA1, 18 h, read-out: MIC Piperacillin Alone
E. coli OXA 3 = assay: MIC, agar dilution method; details: Escherichia coli, OXA3, 18 h, read-out: MIC Piperacillin Alone
E. coli SHV 1 = assay: MIC, agar dilution method; details: Escherichia coli, SHV1, 18 h, read-out: MIC Piperacillin Alone
K. pneumoniae 336L = assay: MIC, agar dilution method; details: Klebsiella pneumoniae, 18 h, read-out: MIC Piperacillin Alone
S. marcescens 200L = assay: MIC, agar dilution method; details: Serratia marcescens, 18 h, read-out: MIC Piperacillin Alone
P. vulgaris CT106 = assay: MIC, agar dilution method; details: Proteus vulgaris, CT106, 18 h, read-out: MIC Piperacillin Alone
C. freundii 2046E = assay: MIC, agar dilution method; details: Citrobacter freundii, 18 h, read-out: MIC Piperacillin Alone
E. cloacae 40015 = assay: MIC, agar dilution method; details: Enterobacter cloacae, 40015, 18 h, read-out: MIC Piperacillin Alone
E. cloacae E. 4009 = assay: MIC, agar dilution method; details: Enterobacter cloacae, E.4009, 18 h, read-out: MIC Piperacillin Alone
E. aerogenes = assay: MIC, agar dilution method; details: Klebsiella aerogenes, 18 h, read-out: MIC Piperacillin Alone
P. aeruginosa L 46007 = assay: MIC, agar dilution method; details: Pseudomonas aeruginosa, L46007, 18 h, read-out: MIC Piperacillin Alone
A. calcoaceticus 553L = assay: MIC, agar dilution method; details: Acinetobacter calcoaceticus, 18 h, read-out: MIC Piperacillin Alone
[1] = read-out: MIC Ceftazidime (Alone)
[2] = read-out: MIC Piperacillin Alone

C[C@]1(C=NOCC(=O)O)[C@H](C(=O)O)N2C(=O)C[C@H]2S1(=O)=O [Compound 28, (2S, 3R, 5R)-3-formyl-3-methyl-7-oxo-4-thia-1-azabicyclo[3.2.0]heptane-2-carboxylicacid, 3^1-[O-(carboxymethyl)oxime], disodium salt, 4,4-dioxide] gave an IC50 (TEM-1) of 4.8 nM and an IC50 (cephalosporinase) of 1000 nM.
CCON=C[C@@]1(C)[C@H](C(=O)O)N2C(=O)C[C@H]2S1(=O)=O [Compound 10, sodium (2S, 3R, 5R]-3-formyl-3-methyl-7-oxo-4-thia-1-azabicyclo[3.2.0]heptane-2-carboxylate, 3^1-(O-ethyloxime), 4,4-dioxide] was tested, and the IC50 (TEM-1) was 500 nM and the IC50 (cephalosporinase) was 1000 nM.
With CC(C)(O/N=C(\C(=O)N[C@@H]1C(=O)N2C(C(=O)[O-])=C(C[n+]3ccccc3)CS[C@H]12)c1csc(N)n1)C(=O)O [Ceftazidime, ceftazidime] the MIC (E. coli TEM 3; [1]) was 25 µg/mL (≈ 45.7 µM), the MIC (E. coli TEM 7; [1]) was 25 µg/mL (≈ 45.7 µM) and the MIC (K. pneumoniae CTX1; [1]) was 100 µg/mL (≈ 183 µM). The MIC (E. cloacae P99; [1]) was 100 µg/mL (≈ 183 µM), the MIC (E. cloacae 40011; [1]) was 50 µg/mL (≈ 91.5 µM) and the MIC (E. aerogenes 41004; [1]) was 25 µg/mL (≈ 45.7 µM). The MIC (M. morganii 36010; [1]) was 200 µg/mL (≈ 366 µM), the MIC (M. morganii 36014; [1]) was 25 µg/mL (≈ 45.7 µM) and the MIC (P. aeruginosa 46220 DR-2) was 25 µg/mL (≈ 45.7 µM). The MIC (E. aerogenes 41003) was 25 µg/mL (≈ 45.7 µM), the MIC (P. aeruginosa L 46003) was 200 µg/mL (≈ 366 µM) and the MIC (E. cloacae E. 40009) was 100 µg/mL (≈ 183 µM). For the same compound, the MIC (E. aerogenes 41006) was 100 µg/mL (≈ 183 µM).
In the case of CC(=O)NN=C[C@@]1(C)[C@H](C(=O)O)N2C(=O)C[C@H]2S1(=O)=O [Compound 38, sodium (2S, 3R, 5R)-3-formyl-3-methyl-7-oxo-4-thia-1-azabicyclo[3.2.0]heptane-2-carboxylate, 3^1-(acetylhydrazone), 4,4-dioxide], the IC50 (TEM-1) is reported as 1.4 nM and the IC50 (cephalosporinase) is reported as 600 nM.
With CCN1CCN(C(=O)N[C@@H](C(=O)N[C@@H]2C(=O)N3[C@@H]2SC(C)(C)[C@@H]3C(=O)O)c2ccccc2)C(=O)C1=O [Piperacillin, piperacillin] the MIC (S. aureus 1628) was 400 µg/mL (≈ 773 µM), the MIC (S. aureus 54K) was 12.5 µg/mL (≈ 24.2 µM) and the MIC (S. aureus 80K) was 12.5 µg/mL (≈ 24.2 µM). It also gave an MIC (E. coli TEM 1) of 400 µg/mL (≈ 773 µM), an MIC (E. coli TEM 3; [2]) of 100 µg/mL (≈ 193 µM) and an MIC (E. coli TEM 7; [2]) of 100 µg/mL (≈ 193 µM). It also gave an MIC (E. coli OXA 1) of 25 µg/mL (≈ 48.3 µM), an MIC (E. coli OXA 3) of 3.13 µg/mL (≈ 6.05 µM) and an MIC (E. coli SHV 1) of 50 µg/mL (≈ 96.6 µM). The MIC (K. pneumoniae 336L) was 200 µg/mL (≈ 386 µM), the MIC (K. pneumoniae CTX1; [2]) was > 40 µg/mL and the MIC (S. marcescens 200L) was 100 µg/mL (≈ 193 µM). It also gave an MIC (P. vulgaris CT106) of 400 µg/mL (≈ 773 µM), an MIC (C. freundii 2046E) of 100 µg/mL (≈ 193 µM) and an MIC (E. cloacae P99; [2]) of 200 µg/mL (≈ 386 µM). It also gave an MIC (E. cloacae 40011; [2]) of 50 µg/mL (≈ 96.6 µM), an MIC (E. cloacae 40015) of 50 µg/mL (≈ 96.6 µM) and an MIC (E. cloacae E. 4009) of 100 µg/mL (≈ 193 µM). For the same compound, the MIC (E. aerogenes) was 25 µg/mL (≈ 48.3 µM), the MIC (E. aerogenes 41004; [2]) was 25 µg/mL (≈ 48.3 µM) and the MIC (P. aeruginosa L 46007) was 100 µg/mL (≈ 193 µM). The MIC (M. morganii 36010; [2]) was 200 µg/mL (≈ 386 µM), the MIC (M. morganii 36014; [2]) was 50 µg/mL (≈ 96.6 µM) and the MIC (A. calcoaceticus 553L) was > 400 µg/mL.
Work on C[C@]1(C=NO)[C@H](C(=O)O)N2C(=O)C[C@H]2S1(=O)=O [Compound 5, sodium (2S, 3R, 5R)-3-formyl-3-methyl-7-oxo-4-thia-1-azabicyclo[3.2.0]heptane-2-carboxylate, 3^1-(hydroxyloxime), 4,4-dioxide] yielded an IC50 (TEM-1) of 580 nM and an IC50 (cephalosporinase) of 7000 nM.
CON=C[C@@]1(C)[C@H](C(=O)O)N2C(=O)C[C@H]2S1(=O)=O [Compound 3, sodium (2S, 3R, 5R)-3-formyl-3-methyl-7-oxo-4-thia-1-azabicyclo[3.2.0]heptane-2-carboxylate, 3^1-(O-methyloxime), 4,4-dioxide] gave an IC50 (TEM-1) of 300 nM and an IC50 (cephalosporinase) of 1900 nM.
Work on CCCON=C[C@@]1(C)[C@H](C(=O)O)N2C(=O)C[C@H]2S1(=O)=O [Compound 8, sodium (2S, 3R, 5R)-3-formyl-3-methyl-7-oxo-4-thia-1-azabicyclo[3.2.0]heptane-2-carboxylate, 3^1-(O-propyloxime), 4,4-dioxide] yielded an IC50 (TEM-1) of 100 nM and an IC50 (cephalosporinase) of 1000 nM.
